Measured values reported in ChEMBL document CHEMBL4837243, “Discovery of TDI-10229: A Potent and Orally Bioavailable Inhibitor of Soluble Adenylyl Cyclase (sAC, ADCY10)” (ACS Med Chem Lett, 2021).
Values after ≈ are worked out from the molar mass of the structure shown.

How the values were obtained:
[1] = molecular target: Adenylate cyclase type 10 (Homo sapiens, UniProt Q96PN6)
Description: Inhibition of human soluble adenylyl cyclase assessed as reduction in cAMP levels in the presence of alpha-32p labeled ATP by biochemical assay

[2] = Kinetic solubility of compound by UV- absorbance analysis
[3] = Octanol-water partition coefficient, logD of the compound at pH 7.4 by HPLC analysis; format: physicochemical
[4] = Permeability of the compound in PRISMA HT buffer at pH 7.4 at 10 umol/L incubated for 3 hrs bt PAMPA based LC/MS/MS analysis; format: ADME; settings: dose 10 µmol/L, read-out: permeability
[5] = Mean residence time in CD1 mouse at 20 mg/kg, po measured up to 24 hrs; format: ADME, organism-based; settings: in vivo
[6] = AUC in CD1 mouse at 20 mg/kg, po measured up to 24 hrs; format: ADME, organism-based; design: route oral, dose 20 mg/kg, time <=24; settings: in vivo
[7] = AUC in CD1 mouse at 20 mg/kg, ip measured up to 24 hrs; format: ADME, organism-based; design: route intraperitoneal, dose 20 mg/kg, time <=24; settings: in vivo
[8] = Mean residence time in CD1 mouse at 20 mg/kg, ip measured up to 24 hrs; format: ADME, organism-based; settings: in vivo
[9] = Bioavailability in mouse; format: ADME, organism-based; settings: in vivo, dose 20 mg/kg
[10] = Cmax in CD1 mouse at 20 mg/kg, po measured up to 24 hrs; format: ADME, organism-based; design: route oral, dose 20 mg/kg, time <=24; settings: in vivo
[11] = Cmax in CD1 mouse at 20 mg/kg, ip measured up to 24 hrs; format: ADME, organism-based; design: route intraperitoneal, dose 20 mg/kg, time <=24; settings: in vivo
[12] = Clearance in human liver microsomes; format: ADME, Microsome; settings: read-out: CLH
[13] = Clearance in mouse liver microsomes; format: ADME, Microsome; settings: read-out: CLH
[14] = Oral bioavailability in mouse; format: ADME, organism-based; settings: in vivo

Chain of Adenylate cyclase type 10 (Q96PN6 whole entry): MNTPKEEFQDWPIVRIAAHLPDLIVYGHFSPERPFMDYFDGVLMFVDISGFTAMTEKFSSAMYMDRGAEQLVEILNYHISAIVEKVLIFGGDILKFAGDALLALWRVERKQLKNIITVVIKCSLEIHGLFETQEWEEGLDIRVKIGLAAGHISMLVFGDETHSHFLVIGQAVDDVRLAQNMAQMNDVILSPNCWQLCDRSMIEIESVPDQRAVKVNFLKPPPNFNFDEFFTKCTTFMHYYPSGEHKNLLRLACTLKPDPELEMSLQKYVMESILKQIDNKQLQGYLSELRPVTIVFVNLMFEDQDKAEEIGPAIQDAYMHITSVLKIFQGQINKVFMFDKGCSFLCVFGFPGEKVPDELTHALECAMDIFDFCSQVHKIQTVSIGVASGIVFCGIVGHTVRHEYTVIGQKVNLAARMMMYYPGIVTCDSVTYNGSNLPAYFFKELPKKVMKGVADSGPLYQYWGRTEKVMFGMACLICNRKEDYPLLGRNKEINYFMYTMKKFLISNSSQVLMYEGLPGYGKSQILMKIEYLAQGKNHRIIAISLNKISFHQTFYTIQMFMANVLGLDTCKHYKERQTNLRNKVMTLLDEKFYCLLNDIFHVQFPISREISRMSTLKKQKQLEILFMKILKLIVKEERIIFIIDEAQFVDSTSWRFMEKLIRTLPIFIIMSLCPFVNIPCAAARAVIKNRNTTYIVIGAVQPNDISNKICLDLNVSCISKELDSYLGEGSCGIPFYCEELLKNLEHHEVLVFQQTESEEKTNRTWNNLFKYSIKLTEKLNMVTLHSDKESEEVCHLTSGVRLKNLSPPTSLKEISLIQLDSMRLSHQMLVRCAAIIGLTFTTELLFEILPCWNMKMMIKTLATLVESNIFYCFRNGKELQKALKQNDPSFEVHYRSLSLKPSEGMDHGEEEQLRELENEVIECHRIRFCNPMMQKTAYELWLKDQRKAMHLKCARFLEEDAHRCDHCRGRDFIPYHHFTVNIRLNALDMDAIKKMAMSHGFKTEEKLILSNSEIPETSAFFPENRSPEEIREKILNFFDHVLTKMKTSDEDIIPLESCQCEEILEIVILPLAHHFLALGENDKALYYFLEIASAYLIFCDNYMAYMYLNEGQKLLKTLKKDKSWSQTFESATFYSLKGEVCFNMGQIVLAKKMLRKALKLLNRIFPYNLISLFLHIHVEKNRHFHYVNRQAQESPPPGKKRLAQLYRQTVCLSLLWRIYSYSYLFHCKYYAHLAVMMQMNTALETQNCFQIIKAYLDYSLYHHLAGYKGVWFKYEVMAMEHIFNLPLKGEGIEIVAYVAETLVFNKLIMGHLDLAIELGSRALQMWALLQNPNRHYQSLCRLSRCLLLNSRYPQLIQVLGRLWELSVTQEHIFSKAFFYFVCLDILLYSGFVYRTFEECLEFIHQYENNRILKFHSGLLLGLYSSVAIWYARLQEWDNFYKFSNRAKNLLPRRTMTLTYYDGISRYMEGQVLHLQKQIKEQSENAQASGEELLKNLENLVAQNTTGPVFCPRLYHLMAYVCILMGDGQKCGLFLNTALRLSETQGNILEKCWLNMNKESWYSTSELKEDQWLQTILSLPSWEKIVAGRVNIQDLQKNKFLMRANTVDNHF

SMILES	IC50 [1] [µM]	solubility kinetic [2] [µg/mL]	logD [3]	Papp at 3 h, 10 µM [4] [×10⁻⁶ cm/s]	also measured
Cc1cc(-c2nn(C)cc2Cc2cccs2)nc(N)n1	> 1	–	–	–	–
Cn1cc(Cc2cccs2)c(-c2cc(Cl)nc(N)n2)n1	–	6.3 (≈ 20.6 µM)	2.5	25.8	–
Cc1c(Cc2ccnn2C)c(-c2cc(Cl)nc(N)n2)nn1C	> 10	–	–	–	–
Cc1c(Cc2ccccc2)c(-c2cc(Cl)nc(N)n2)nn1C	–	1.3 (≈ 4.14 µM)	2.9	27.4	MRT [5]: 3.95 h; AUC at 24 h [6]: 94 µM·h; AUC at 24 h [7]: 72 µM·h; MRT [8]: 2.82 h; bioavailability [9]: 59%; Cmax [10]: 15.5 µM; Cmax [11]: 45 µM
Cc1ccc(Cc2cn(C)nc2-c2cc(Cl)nc(N)n2)s1	> 1	–	–	–	–
Nc1nc(Cl)cc(N(Cc2cccs2)C2CC2)n1	–	–	–	–	microsomal CLint [12]: 360 µL/min/mg; microsomal CLint [13]: > 768 µL/min/mg; bioavailability [14]: < 5%

Now from value to molecule, other results behind:

IC50 [1] [µM]	solubility kinetic [2] [µg/mL]	logD [3]	Papp at 3 h, 10 µM [4] [×10⁻⁶ cm/s]	SMILES	also measured
–	0.38 (≈ 1.19 µM)	2.7	28	Cc1c(Cc2cccs2)c(-c2cc(Cl)nc(N)n2)nn1C	–
> 10	–	–	–	CN(C)Cc1c(Cc2ccccc2)c(-c2cc(Cl)nc(N)n2)nn1C	–
> 10	–	–	–	CNC(=O)c1c(Cc2ccccc2)c(-c2cc(Cl)nc(N)n2)nn1C	–
–	7.5 (≈ 23.6 µM)	2.8	25.7	Cn1cc(Cc2cccc(F)c2)c(-c2cc(Cl)nc(N)n2)n1	–
